PubChem BioAssay (NCI)
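Five compound concentrations were applied to cells in 96-well plates for 48 hours; endpoints were derived by simple linear interpolation of the resulting dose-response curve. The concentration for 50% growth inhibition is given as GI50. At the TGI there is no net growth.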

Columns and labels:
Assay in all cases: inhibition of tumour cell growth, NCI panel, 48 h
UO-31 renal = system: UO-31 renal
HCT-116 colon = system: HCT-116 colon
HOP-62 NSCLC = system: HOP-62 NSCLC
CAKI-1 renal = system: CAKI-1 renal
NCI-H23 lung = system: NCI-H23 lung
NCI-H522 lung = system: NCI-H522 lung
MCF7 breast = system: MCF7 breast
A498 renal = system: A498 renal
SK-MEL-5 melanoma = system: SK-MEL-5 melanoma
EKVX NSCLC = system: EKVX NSCLC

Structure (SMILES)	GI50 (UO-31 renal) [µM]	TGI (UO-31 renal) [µM]	GI50 (HCT-116 colon) [µM]	TGI (HCT-116 colon) [µM]	GI50 (HOP-62 NSCLC) [µM]	TGI (HOP-62 NSCLC) [µM]	GI50 (CAKI-1 renal) [µM]	TGI (CAKI-1 renal) [µM]	GI50 (NCI-H23 lung) [µM]	TGI (NCI-H23 lung) [µM]	GI50 (NCI-H522 lung) [µM]	TGI (NCI-H522 lung) [µM]	GI50 (MCF7 breast) [µM]	TGI (MCF7 breast) [µM]	GI50 (A498 renal) [µM]	TGI (A498 renal) [µM]	GI50 (SK-MEL-5 melanoma) [µM]	TGI (SK-MEL-5 melanoma) [µM]	GI50 (EKVX NSCLC) [µM]	TGI (EKVX NSCLC) [µM]
COc1cccc(CN(C)c2ccc(CO)c(Cl)c2)c1	14.5	> 83.7	0.243	14.1	5.33	> 87.7	2.82	> 59.3	18.6	> 100	22	> 74.3	0.504	> 43.7	0.0311	0.154	7.5	21.4	24.8	97.9
CN(Cc1ccc(C(F)(F)F)cc1)CC(O)C(=O)Nc1ccc(Cl)cc1 (stereo not given)	1.29	2.65	1.12	2.6	1.7	3.18	1.37	2.83	1.32	2.69	1.5	3.06	1.04	2.36	1.38	2.79	1.67	3.11	1.18	2.51
Cn1cccc1-c1cc(-c2ccccc2)[nH]c(=O)c1C#N	> 100	> 100	> 100	> 100	> 100	> 100	> 100	> 100	> 100	> 100	> 100	> 100	> 100	> 100	25.6	> 100	> 100	> 100	37.3	> 100
C=C1C(=O)O[C@H]2[C@H]1CC/C(COC(=O)NCc1ccc(OC)cc1)=C\CC[C@@]1(C)O[C@@H]21	0.501	0.991	0.471	1.02	7.98	24.1	0.628	2.08	1.45	7.96	0.378	1.15	1.31	5.45	2.92	20	2.85	17.2	3.93	17.4
Cc1ccc2nc(-c3ccc(OCC(=O)N=Nc4c(O)[nH]c5ccccc45)cc3)[nH]c2c1	82.4	> 100	2.26	5.35	19	45.4	2.8	10.2	3.53	14.5	2	5.09	1.85	3.96	> 100	> 100	11.9	56.1	28	> 100
COc1cc2ncnc(-n3ncc4cc(NC(=O)Nc5ccc(Cl)c(Cl)c5)ccc43)c2cc1OC	2.04	4.17	2.8	10.3	1.91	3.76	2.3	5.94	1.93	4.24	2.5	6	1.85	4.56	2.37	6.24	2.09	3.89	3.06	9.84
CSc1ncc(Br)c(Sc2nc(N)nc3nc[nH]c23)n1	1.94	11.2	4.2	> 100	2.59	> 100	1.84	34.1	3.74	> 100	3.97	20.3	1.91	11.9	3.62	29	3.12	36.1	3.07	55.1
